Reference: the supplement of paper PMC10307832

How the values were obtained:
Assay in all cases: relative viability (nuclei count vs DMSO), 5 days (fraction); higher = more cells survive
Zosuquidar + Palbociclib = compound: O[C@@H](COc1cccc2ncccc12)CN1CCN([C@@H]2c3ccccc3[C@@H]3[C@H](c4ccccc42)C3(F)F)CC1 [Zosuquidar] + CC(=O)c1c(C)c2cnc(Nc3ccc(N4CCNCC4)cn3)nc2n(C2CCCC2)c1=O [Palbociclib] (partner 0.5 µM)
Outline: (§1)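 Lung cancer cell lines in 1536-well plates were dosed by pin tool the day after seeding, either with one drug alone or with a fixed anchor-drug dose plus five library-drug doses (not always all listed) in √10 steps. After 5 days, cells were fixed and their nuclei stained in one step (final 0.05% Triton X-100, 1% formaldehyde, 1 ug/ml Hoechst), then counted on 4× images. Relative viability is the nuclei count in treated wells divided by that in vehicle wells. Values are medians of duplicate plates.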

Kobe2602 + Lapatinib = compound: C1=CC(=CC=C1NC(=S)NNC2=C(C=C(C=C2[N+](=O)[O-])C(F)(F)F)[N+](=O)[O-])F [Kobe2602] + CS(=O)(=O)CCNCc1ccc(-c2ccc3ncnc(Nc4ccc(OCc5cccc(F)c5)c(Cl)c4)c3c2)o1 [Lapatinib] (partner 2 µM)
Outline: as §1

Zosuquidar + Crizotinib = compound: O[C@@H](COc1cccc2ncccc12)CN1CCN([C@@H]2c3ccccc3[C@@H]3[C@H](c4ccccc42)C3(F)F)CC1 [Zosuquidar] + C[C@@H](Oc1cc(-c2cnn(C3CCNCC3)c2)cnc1N)c1c(Cl)ccc(F)c1Cl [Crizotinib] (partner 1 µM)
Outline: as §1

Zosuquidar + Trametinib = compound: O[C@@H](COc1cccc2ncccc12)CN1CCN([C@@H]2c3ccccc3[C@@H]3[C@H](c4ccccc42)C3(F)F)CC1 [Zosuquidar] + CC(=O)Nc1cccc(-n2c(=O)n(C3CC3)c(=O)c3c(Nc4ccc(I)cc4F)n(C)c(=O)c(C)c32)c1 [Trametinib] (partner 0.02 µM)
Outline: as §1

Cell Line: SK-MES-1
- relative viability (Zosuquidar + Palbociclib; first compound 0.01 µM): 0.332
- relative viability (Zosuquidar + Palbociclib; first compound 0.03162 µM): 0.347
- relative viability (Zosuquidar + Palbociclib; first compound 0.1 µM): 0.374
- relative viability (Zosuquidar + Palbociclib; first compound 0.3162 µM): 0.329
- relative viability (Zosuquidar + Palbociclib; first compound 1 µM): 0.319
- relative viability (Kobe2602 + Lapatinib; first compound 0.2 µM): 0.465
- relative viability (Kobe2602 + Lapatinib; first compound 0.6325 µM): 0.488
- relative viability (Kobe2602 + Lapatinib; first compound 2 µM): 0.427
- relative viability (Kobe2602 + Lapatinib; first compound 6.325 µM): 0.436
- relative viability (Kobe2602 + Lapatinib; first compound 20 µM): 0.464
- relative viability (Zosuquidar + Crizotinib; first compound 0.01 µM): 0.977
- relative viability (Zosuquidar + Crizotinib; first compound 0.03162 µM): 0.99
- relative viability (Zosuquidar + Crizotinib; first compound 0.1 µM): 0.955
- relative viability (Zosuquidar + Crizotinib; first compound 0.3162 µM): 1.03
- relative viability (Zosuquidar + Crizotinib; first compound 1 µM): 1.02
- relative viability (Zosuquidar + Trametinib; first compound 0.01 µM): 0.616
- relative viability (Zosuquidar + Trametinib; first compound 0.03162 µM): 0.494
- relative viability (Zosuquidar + Trametinib; first compound 0.1 µM): 0.535
- relative viability (Zosuquidar + Trametinib; first compound 0.3162 µM): 0.563
- relative viability (Zosuquidar + Trametinib; first compound 1 µM): 0.549

Cell Line: HCC-366
- relative viability (Zosuquidar + Palbociclib; first compound 0.01 µM): 0.322
- relative viability (Zosuquidar + Palbociclib; first compound 0.03162 µM): 0.402
- relative viability (Zosuquidar + Palbociclib; first compound 0.1 µM): 0.355
- relative viability (Zosuquidar + Palbociclib; first compound 0.3162 µM): 0.394
- relative viability (Zosuquidar + Palbociclib; first compound 1 µM): 0.338
- relative viability (Kobe2602 + Lapatinib; first compound 0.2 µM): 1.05
- relative viability (Kobe2602 + Lapatinib; first compound 0.6325 µM): 1.16
- relative viability (Kobe2602 + Lapatinib; first compound 2 µM): 0.963
- relative viability (Kobe2602 + Lapatinib; first compound 6.325 µM): 0.979
- relative viability (Kobe2602 + Lapatinib; first compound 20 µM): 0.968
- relative viability (Zosuquidar + Crizotinib; first compound 0.01 µM): 0.468
- relative viability (Zosuquidar + Crizotinib; first compound 0.03162 µM): 0.59
- relative viability (Zosuquidar + Crizotinib; first compound 0.1 µM): 0.636
- relative viability (Zosuquidar + Crizotinib; first compound 0.3162 µM): 0.48
- relative viability (Zosuquidar + Crizotinib; first compound 1 µM): 0.577
- relative viability (Zosuquidar + Trametinib; first compound 0.01 µM): 0.324
- relative viability (Zosuquidar + Trametinib; first compound 0.03162 µM): 0.35
- relative viability (Zosuquidar + Trametinib; first compound 0.1 µM): 0.367
- relative viability (Zosuquidar + Trametinib; first compound 0.3162 µM): 0.46
- relative viability (Zosuquidar + Trametinib; first compound 1 µM): 0.259

Cell Line: NCI-H3122
- relative viability (Zosuquidar + Palbociclib; first compound 0.01 µM): 0.177
- relative viability (Zosuquidar + Palbociclib; first compound 0.03162 µM): 0.195
- relative viability (Zosuquidar + Palbociclib; first compound 0.1 µM): 0.18
- relative viability (Zosuquidar + Palbociclib; first compound 0.3162 µM): 0.213
- relative viability (Zosuquidar + Palbociclib; first compound 1 µM): 0.197
- relative viability (Kobe2602 + Lapatinib; first compound 0.2 µM): 1.04
- relative viability (Kobe2602 + Lapatinib; first compound 0.6325 µM): 0.981
- relative viability (Kobe2602 + Lapatinib; first compound 2 µM): 1
- relative viability (Kobe2602 + Lapatinib; first compound 6.325 µM): 1.03
- relative viability (Kobe2602 + Lapatinib; first compound 20 µM): 1.06
- relative viability (Zosuquidar + Crizotinib; first compound 0.01 µM): 0.271
- relative viability (Zosuquidar + Crizotinib; first compound 0.03162 µM): 0.274
- relative viability (Zosuquidar + Crizotinib; first compound 0.1 µM): 0.24
- relative viability (Zosuquidar + Crizotinib; first compound 0.3162 µM): 0.275
- relative viability (Zosuquidar + Crizotinib; first compound 1 µM): 0.252
- relative viability (Zosuquidar + Trametinib; first compound 0.01 µM): 0.232
- relative viability (Zosuquidar + Trametinib; first compound 0.03162 µM): 0.258
- relative viability (Zosuquidar + Trametinib; first compound 0.1 µM): 0.238
- relative viability (Zosuquidar + Trametinib; first compound 0.3162 µM): 0.222
- relative viability (Zosuquidar + Trametinib; first compound 1 µM): 0.211

Cell Line: COR-L 105
- relative viability (Zosuquidar + Palbociclib; first compound 0.01 µM): 0.372
- relative viability (Zosuquidar + Palbociclib; first compound 0.03162 µM): 0.376
- relative viability (Zosuquidar + Palbociclib; first compound 0.1 µM): 0.478
- relative viability (Zosuquidar + Palbociclib; first compound 0.3162 µM): 0.417
- relative viability (Zosuquidar + Palbociclib; first compound 1 µM): 0.385
- relative viability (Kobe2602 + Lapatinib; first compound 0.2 µM): 0.369
- relative viability (Kobe2602 + Lapatinib; first compound 0.6325 µM): 0.381
- relative viability (Kobe2602 + Lapatinib; first compound 2 µM): 0.379
- relative viability (Kobe2602 + Lapatinib; first compound 6.325 µM): 0.38
- relative viability (Kobe2602 + Lapatinib; first compound 20 µM): 0.401
- relative viability (Zosuquidar + Crizotinib; first compound 0.01 µM): 0.953
- relative viability (Zosuquidar + Crizotinib; first compound 0.03162 µM): 0.727
- relative viability (Zosuquidar + Crizotinib; first compound 0.1 µM): 0.788
- relative viability (Zosuquidar + Crizotinib; first compound 0.3162 µM): 0.838
- relative viability (Zosuquidar + Crizotinib; first compound 1 µM): 0.73
- relative viability (Zosuquidar + Trametinib; first compound 0.01 µM): 0.459
- relative viability (Zosuquidar + Trametinib; first compound 0.03162 µM): 0.435
- relative viability (Zosuquidar + Trametinib; first compound 0.1 µM): 0.408
- relative viability (Zosuquidar + Trametinib; first compound 0.3162 µM): 0.266
- relative viability (Zosuquidar + Trametinib; first compound 1 µM): 0.481

Cell Line: 201T
- relative viability (Zosuquidar + Palbociclib; first compound 0.01 µM): 0.349
- relative viability (Zosuquidar + Palbociclib; first compound 0.03162 µM): 0.343
- relative viability (Zosuquidar + Palbociclib; first compound 0.1 µM): 0.365
- relative viability (Zosuquidar + Palbociclib; first compound 0.3162 µM): 0.354
- relative viability (Zosuquidar + Palbociclib; first compound 1 µM): 0.337
- relative viability (Kobe2602 + Lapatinib; first compound 0.2 µM): 0.986
- relative viability (Kobe2602 + Lapatinib; first compound 0.6325 µM): 1.1
- relative viability (Kobe2602 + Lapatinib; first compound 2 µM): 1.07
- relative viability (Kobe2602 + Lapatinib; first compound 6.325 µM): 1.01
- relative viability (Kobe2602 + Lapatinib; first compound 20 µM): 1.04
- relative viability (Zosuquidar + Crizotinib; first compound 0.01 µM): 0.986
- relative viability (Zosuquidar + Crizotinib; first compound 0.03162 µM): 0.891
- relative viability (Zosuquidar + Crizotinib; first compound 0.1 µM): 0.996
- relative viability (Zosuquidar + Crizotinib; first compound 0.3162 µM): 0.983
- relative viability (Zosuquidar + Crizotinib; first compound 1 µM): 1.04
- relative viability (Zosuquidar + Trametinib; first compound 0.01 µM): 0.731
- relative viability (Zosuquidar + Trametinib; first compound 0.03162 µM): 0.742
- relative viability (Zosuquidar + Trametinib; first compound 0.1 µM): 0.684
- relative viability (Zosuquidar + Trametinib; first compound 0.3162 µM): 0.691
- relative viability (Zosuquidar + Trametinib; first compound 1 µM): 0.719

Cell Line: NCI-H2228
- relative viability (Zosuquidar + Palbociclib; first compound 0.01 µM): 0.804
- relative viability (Zosuquidar + Palbociclib; first compound 0.03162 µM): 0.821
- relative viability (Zosuquidar + Palbociclib; first compound 0.1 µM): 0.76
- relative viability (Zosuquidar + Palbociclib; first compound 0.3162 µM): 0.865
- relative viability (Zosuquidar + Palbociclib; first compound 1 µM): 0.613
- relative viability (Kobe2602 + Lapatinib; first compound 0.2 µM): 1.08
- relative viability (Kobe2602 + Lapatinib; first compound 0.6325 µM): 1.02
- relative viability (Kobe2602 + Lapatinib; first compound 2 µM): 0.985
- relative viability (Kobe2602 + Lapatinib; first compound 6.325 µM): 1.12
- relative viability (Kobe2602 + Lapatinib; first compound 20 µM): 1.75
- relative viability (Zosuquidar + Crizotinib; first compound 0.01 µM): 0.524
- relative viability (Zosuquidar + Crizotinib; first compound 0.03162 µM): 0.598
- relative viability (Zosuquidar + Crizotinib; first compound 0.1 µM): 0.44
- relative viability (Zosuquidar + Crizotinib; first compound 0.3162 µM): 0.338
- relative viability (Zosuquidar + Crizotinib; first compound 1 µM): 0.607
- relative viability (Zosuquidar + Trametinib; first compound 0.01 µM): 0.438
- relative viability (Zosuquidar + Trametinib; first compound 0.03162 µM): 0.441
- relative viability (Zosuquidar + Trametinib; first compound 0.1 µM): 0.423
- relative viability (Zosuquidar + Trametinib; first compound 0.3162 µM): 0.57
- relative viability (Zosuquidar + Trametinib; first compound 1 µM): 0.505

Cell Line: LC-2-ad
- relative viability (Zosuquidar + Palbociclib; first compound 0.01 µM): 0.468
- relative viability (Zosuquidar + Palbociclib; first compound 0.03162 µM): 0.465
- relative viability (Zosuquidar + Palbociclib; first compound 0.1 µM): 0.492
- relative viability (Zosuquidar + Palbociclib; first compound 0.3162 µM): 0.493
- relative viability (Zosuquidar + Palbociclib; first compound 1 µM): 0.486
- relative viability (Kobe2602 + Lapatinib; first compound 0.2 µM): 1.03
- relative viability (Kobe2602 + Lapatinib; first compound 0.6325 µM): 0.893
- relative viability (Kobe2602 + Lapatinib; first compound 2 µM): 0.764
- relative viability (Kobe2602 + Lapatinib; first compound 6.325 µM): 0.978
- relative viability (Kobe2602 + Lapatinib; first compound 20 µM): 0.923
- relative viability (Zosuquidar + Crizotinib; first compound 0.01 µM): 0.443
- relative viability (Zosuquidar + Crizotinib; first compound 0.03162 µM): 0.508
- relative viability (Zosuquidar + Crizotinib; first compound 0.1 µM): 0.451
- relative viability (Zosuquidar + Crizotinib; first compound 0.3162 µM): 0.449
- relative viability (Zosuquidar + Crizotinib; first compound 1 µM): 0.46
- relative viability (Zosuquidar + Trametinib; first compound 0.01 µM): 0.91
- relative viability (Zosuquidar + Trametinib; first compound 0.03162 µM): 0.901
- relative viability (Zosuquidar + Trametinib; first compound 0.1 µM): 0.812
- relative viability (Zosuquidar + Trametinib; first compound 0.3162 µM): 0.92
- relative viability (Zosuquidar + Trametinib; first compound 1 µM): 0.911

Cell Line: NCI-H2087
- relative viability (Zosuquidar + Palbociclib; first compound 0.01 µM): 0.19
- relative viability (Zosuquidar + Palbociclib; first compound 0.03162 µM): 0.25
- relative viability (Zosuquidar + Palbociclib; first compound 0.1 µM): 0.243
- relative viability (Zosuquidar + Palbociclib; first compound 0.3162 µM): 0.205
- relative viability (Zosuquidar + Palbociclib; first compound 1 µM): 0.249
- relative viability (Kobe2602 + Lapatinib; first compound 0.2 µM): 0.879
- relative viability (Kobe2602 + Lapatinib; first compound 0.6325 µM): 1.01
- relative viability (Kobe2602 + Lapatinib; first compound 2 µM): 1.26
- relative viability (Kobe2602 + Lapatinib; first compound 6.325 µM): 0.957
- relative viability (Kobe2602 + Lapatinib; first compound 20 µM): 1.04
- relative viability (Zosuquidar + Crizotinib; first compound 0.01 µM): 0.839
- relative viability (Zosuquidar + Crizotinib; first compound 0.03162 µM): 1.05
- relative viability (Zosuquidar + Crizotinib; first compound 0.1 µM): 0.817
- relative viability (Zosuquidar + Crizotinib; first compound 0.3162 µM): 0.915
- relative viability (Zosuquidar + Crizotinib; first compound 1 µM): 0.836
- relative viability (Zosuquidar + Trametinib; first compound 0.01 µM): 0.188
- relative viability (Zosuquidar + Trametinib; first compound 0.03162 µM): 0.192
- relative viability (Zosuquidar + Trametinib; first compound 0.1 µM): 0.167
- relative viability (Zosuquidar + Trametinib; first compound 0.3162 µM): 0.224
- relative viability (Zosuquidar + Trametinib; first compound 1 µM): 0.196
